Assay results: ChEMBL document CHEMBL1201862, “PubChem BioAssay data set” (2004)
Where “and” joins values, the source holds several entries; their conditions need not be identical. Identical values can stand only once.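 Step 1: Grow cells in 96-well plates. Step 2: Expose to compound for 48 hours at 5 concentrations. Step 3: Interpolate endpoints linearly; if unreached, use highest concentration. Here, GI50 denotes the concentration required for 50% inhibition of growth.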 Calls of active or inactive are those of the source. No stated cut-off is given here; in the data, active = GI50 up to about 1.1 µM and inactive = higher.

Assays:
Assay in all cases: inhibition of tumour cell growth, NCI panel, 48 h
HL-60 = tested on: HL-60
ACHN = tested on: ACHN
SK-MEL-28 = tested on: SK-MEL-28
UO-31 = tested on: UO-31
SF-539 = tested on: SF-539
RXF 393 = tested on: RXF 393
UACC-257 = tested on: UACC-257
UACC-62 = tested on: UACC-62
KM12 = tested on: KM12
RPMI-8226 = tested on: RPMI-8226
MOLT-4 = tested on: MOLT-4
HCC 2998 = tested on: HCC 2998
MCF7 = tested on: MCF7
OVCAR-5 = tested on: OVCAR-5
T47D = tested on: T47D
M14 = tested on: M14
Malme-3M = tested on: Malme-3M
SW-620 = tested on: SW-620
NCI-H226 = tested on: NCI-H226
K562 = tested on: K562
NCI/ADR-RES = tested on: NCI/ADR-RES
DU-145 = tested on: DU-145
CCRF-CEM = tested on: CCRF-CEM
MDA-MB-435 = tested on: MDA-MB-435
A549 = tested on: A549
LOX IMVI = tested on: LOX IMVI
HCT-116 = tested on: HCT-116
PC-3 = tested on: PC-3
NCI-H460 = tested on: NCI-H460
SN12C = tested on: SN12C
EKVX = tested on: EKVX
MDA-N = tested on: MDA-N
HCT-15 = tested on: HCT-15
HT-29 = tested on: HT-29
IGROV-1 = tested on: IGROV-1
MDA-MB-231 = tested on: MDA-MB-231
HOP-62 = tested on: HOP-62
SK-OV-3 = tested on: SK-OV-3
SF-268 = tested on: SF-268
CAKI-1 = tested on: CAKI-1
OVCAR-8 = tested on: OVCAR-8
TK-10 = tested on: TK-10
NCI-H522 = tested on: NCI-H522
COLO 205 = tested on: COLO 205
SR = tested on: SR
OVCAR-3 = tested on: OVCAR-3
SK-MEL-5 = tested on: SK-MEL-5
SNB-19 = tested on: SNB-19
U-251 = tested on: U-251
SF-295 = tested on: SF-295
HOP-92 = tested on: HOP-92
OVCAR-4 = tested on: OVCAR-4
786-0 = tested on: 786-0
NCI-H23 = tested on: NCI-H23
SK-MEL-2 = tested on: SK-MEL-2
A498 = tested on: A498
SNB-75 = tested on: SNB-75
Hs-578T = tested on: Hs-578T

CC(=O)OCC1OC(n2c(-c3ccc(Cl)cc3)ccc(C#N)c2=S)C(OC(C)=O)C(OC(C)=O)C1OC(C)=O (centres undefined)
GI50 (HL-60): > 100 µM (inactive)
GI50 (ACHN): 68.1 µM (inactive) and 58.5 µM (inactive)
GI50 (SK-MEL-28): > 100 µM (inactive)
GI50 (UO-31): 29.6 µM (inactive) and 33.6 µM (inactive)
GI50 (SF-539): 30.4 µM (inactive) and 39.1 µM (inactive)
GI50 (RXF 393): 20 µM (inactive) and 13.3 µM (inactive)
GI50 (UACC-257): > 100 µM (inactive) and 73.6 µM (inactive)
GI50 (UACC-62): 37.4 µM (inactive) and 31.6 µM (inactive)
GI50 (KM12): > 100 µM (inactive)
GI50 (RPMI-8226): > 100 µM (inactive) and 56 µM (inactive)
GI50 (MOLT-4): > 100 µM (inactive) and 51.3 µM (inactive)
GI50 (HCC 2998): > 100 µM (inactive)
GI50 (MCF7): > 100 µM (inactive) and 50.5 µM (inactive)
GI50 (OVCAR-5): > 100 µM (inactive)
GI50 (T47D): 30.6 µM (inactive) and 48.9 µM (inactive)
GI50 (M14): 76 µM (inactive) and > 84.7 µM (inactive)
GI50 (Malme-3M): > 61.1 µM (inactive) and 45 µM (inactive)
GI50 (SW-620): > 100 µM (inactive)
GI50 (NCI-H226): 27 µM (inactive) and 45.9 µM (inactive)
GI50 (K562): > 100 µM (inactive)
GI50 (NCI/ADR-RES): 74 µM (inactive)
GI50 (DU-145): 74.8 µM (inactive) and > 77.1 µM (inactive)
GI50 (CCRF-CEM): > 100 µM (inactive)
GI50 (MDA-MB-435): 53.3 µM (inactive)
GI50 (A549): 83.9 µM (inactive) and 66.5 µM (inactive)
GI50 (LOX IMVI): 54.1 µM (inactive)
GI50 (HCT-116): 77.4 µM (inactive) and 61.2 µM (inactive)
GI50 (PC-3): > 100 µM (inactive) and 55.5 µM (inactive)
GI50 (NCI-H460): > 60.4 µM (inactive) and 55.5 µM (inactive)
GI50 (SN12C): > 100 µM (inactive)
GI50 (EKVX): 17.6 µM (inactive) and 15.1 µM (inactive)
GI50 (MDA-N): > 100 µM (inactive)
GI50 (HCT-15): > 100 µM
GI50 (HT-29): > 100 µM (inactive)

CCC(C(=O)c1ccc(OC)c(OC)c1)N(C(=O)C(F)(F)F)C(C)c1ccccc1 (centres undefined)
GI50 (HL-60): > 100 µM (inactive)
GI50 (IGROV-1): > 100 µM (inactive)
GI50 (ACHN): > 100 µM (inactive)
GI50 (SK-MEL-28): > 100 µM (inactive)
GI50 (UO-31): > 100 µM (inactive)
GI50 (MDA-MB-231): > 100 µM (inactive)
GI50 (UACC-257): > 100 µM (inactive)
GI50 (UACC-62): > 100 µM (inactive)
GI50 (RPMI-8226): > 100 µM (inactive)
GI50 (HOP-62): > 100 µM (inactive)
GI50 (MOLT-4): > 100 µM (inactive)
GI50 (HCC 2998): > 100 µM (inactive)
GI50 (SK-OV-3): > 100 µM (inactive)
GI50 (MCF7): > 100 µM (inactive)
GI50 (SF-268): 83.9 µM (inactive)
GI50 (OVCAR-5): > 100 µM (inactive)
GI50 (CAKI-1): > 100 µM (inactive)
GI50 (OVCAR-8): > 100 µM (inactive)
GI50 (T47D): 91 µM (inactive)
GI50 (M14): > 100 µM (inactive)
GI50 (Malme-3M): > 100 µM (inactive)
GI50 (SW-620): > 100 µM (inactive)
GI50 (K562): > 100 µM (inactive)
GI50 (TK-10): > 100 µM (inactive)
GI50 (NCI/ADR-RES): > 100 µM (inactive)
GI50 (DU-145): > 100 µM (inactive)
GI50 (CCRF-CEM): > 100 µM (inactive)
GI50 (NCI-H522): > 100 µM (inactive)
GI50 (MDA-MB-435): > 100 µM (inactive)
GI50 (A549): > 100 µM (inactive)
GI50 (LOX IMVI): > 100 µM (inactive)
GI50 (COLO 205): > 100 µM (inactive)
GI50 (SR): > 100 µM (inactive)
GI50 (HCT-116): > 100 µM (inactive)
GI50 (PC-3): > 100 µM (inactive)
GI50 (NCI-H460): > 100 µM (inactive)
GI50 (OVCAR-3): > 100 µM (inactive)
GI50 (SK-MEL-5): > 100 µM (inactive)
GI50 (EKVX): > 100 µM (inactive)
GI50 (MDA-N): > 100 µM (inactive)
GI50 (SNB-19): > 100 µM (inactive)
GI50 (U-251): > 100 µM (inactive)
GI50 (SF-295): > 100 µM (inactive)
GI50 (HCT-15): > 100 µM
GI50 (HT-29): > 100 µM (inactive)

O=[N+]([O-])c1cnc(N(CCO)CCO)s1
GI50 (HL-60): > 100 µM (inactive)
GI50 (IGROV-1): > 100 µM (inactive)
GI50 (ACHN): > 100 µM (inactive)
GI50 (SK-MEL-28): > 100 µM (inactive)
GI50 (UO-31): > 100 µM (inactive)
GI50 (HOP-92): > 100 µM (inactive)
GI50 (OVCAR-4): > 100 µM (inactive)
GI50 (SF-539): > 100 µM (inactive)
GI50 (MDA-MB-231): > 100 µM (inactive)
GI50 (RXF 393): > 100 µM (inactive)
GI50 (UACC-257): > 100 µM (inactive)
GI50 (UACC-62): > 100 µM (inactive)
GI50 (KM12): > 100 µM (inactive)
GI50 (HOP-62): > 100 µM (inactive)
GI50 (MOLT-4): > 100 µM (inactive)
GI50 (HCC 2998): > 100 µM (inactive)
GI50 (SK-OV-3): > 100 µM (inactive)
GI50 (786-0): > 100 µM (inactive)
GI50 (MCF7): > 100 µM (inactive)
GI50 (NCI-H23): > 100 µM (inactive)
GI50 (SF-268): > 100 µM (inactive)
GI50 (OVCAR-5): > 100 µM (inactive)
GI50 (CAKI-1): > 100 µM (inactive)
GI50 (OVCAR-8): > 100 µM (inactive)
GI50 (T47D): > 100 µM (inactive)
GI50 (M14): > 100 µM (inactive)
GI50 (Malme-3M): > 100 µM (inactive)
GI50 (SW-620): > 100 µM (inactive)
GI50 (NCI-H226): > 100 µM (inactive)
GI50 (K562): > 100 µM (inactive)
GI50 (NCI/ADR-RES): > 100 µM (inactive)
GI50 (DU-145): > 100 µM (inactive)
GI50 (CCRF-CEM): 79.6 µM (inactive)
GI50 (NCI-H522): > 100 µM (inactive)
GI50 (SK-MEL-2): > 100 µM (inactive)
GI50 (MDA-MB-435): > 100 µM (inactive)
GI50 (A549): > 100 µM (inactive)
GI50 (LOX IMVI): > 100 µM (inactive)
GI50 (COLO 205): > 100 µM (inactive)
GI50 (SR): > 100 µM (inactive)
GI50 (HCT-116): > 100 µM (inactive)
GI50 (PC-3): > 100 µM (inactive)
GI50 (NCI-H460): > 100 µM (inactive)
GI50 (OVCAR-3): > 100 µM (inactive)
GI50 (SN12C): > 100 µM (inactive)
GI50 (SK-MEL-5): > 100 µM (inactive)
GI50 (EKVX): > 100 µM (inactive)
GI50 (MDA-N): > 100 µM (inactive)
GI50 (SNB-19): > 100 µM (inactive)
GI50 (U-251): > 100 µM (inactive)
GI50 (SF-295): > 100 µM (inactive)
GI50 (HCT-15): > 100 µM
GI50 (HT-29): > 100 µM (inactive)
GI50 (A498): > 100 µM (inactive)
GI50 (SNB-75): < 0.01 µM (active)

CC[C@@H](CCCCC1CC[C@H]2CC(=O)C[C@@H]12)OC (some centres undefined)
GI50 (HL-60): 36 µM (inactive)
GI50 (OVCAR-4): > 100 µM (inactive)
GI50 (Hs-578T): > 100 µM (inactive)
GI50 (UACC-62): > 100 µM (inactive)
GI50 (KM12): > 100 µM (inactive)
GI50 (RPMI-8226): > 100 µM (inactive)
GI50 (HOP-62): > 100 µM (inactive)
GI50 (M14): > 100 µM (inactive)
GI50 (Malme-3M): > 100 µM (inactive)
GI50 (K562): 33.7 µM (inactive)
GI50 (MDA-MB-435): > 100 µM (inactive)
GI50 (SR): > 100 µM (inactive)
GI50 (PC-3): > 100 µM (inactive)
GI50 (EKVX): > 100 µM (inactive)
GI50 (MDA-N): > 100 µM (inactive)
